Test results: ChEMBL document CHEMBL1201862, “PubChem BioAssay data set” (2004)
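Dose response: 5 concentrations. Exposure: 48 h. Format: 96-well plates. Endpoint: linear interpolation; highest concentration if not reached. At the GI50, growth is halved.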 Activity calls are given as the source filed them. Rule as the data show it: active = GI50 up to about 1.1 µM and inactive = higher.

Assays:
Assay in all cases: NCI tumour cell line growth inhibition, 48 h
M19-MEL = tested on: M19-MEL
Hs-578T = tested on: Hs-578T
HOP-18 = tested on: HOP-18
XF498 = tested on: XF498
KM-20L2 = tested on: KM-20L2
SNB-78 = tested on: SNB-78
DLD-1 = tested on: DLD-1
BT-549 = tested on: BT-549
RXF 631 = tested on: RXF 631

Row | SMILES | GI50 (M19-MEL) | GI50 (Hs-578T) | GI50 (HOP-18) | GI50 (XF498) | GI50 (KM-20L2) | GI50 (SNB-78) | GI50 (DLD-1) | GI50 (BT-549) | GI50 (RXF 631)
1 | COc1c(C=O)c2c(c(OC)c1OC)-c1ccc(OC)c(=O)cc1[C@@H](NC(C)=O)CC2 | 0.0764 µM (active) | < 0.01 µM (active) | 21.6 µM (inactive) | 0.0773 µM (active) | 0.0364 µM (active) | < 0.0147 µM (active) | 0.0614 µM (active) | 21.1 µM (inactive) | 0.229 µM (active)
2 | Cc1ccc(C)c(NC(=O)C(=O)CC(=O)c2cccc3ccccc23)c1 | > 100 µM (inactive) | – | > 100 µM (inactive) | – | > 100 µM (inactive) | > 100 µM (inactive) | > 100 µM (inactive) | – | > 100 µM (inactive)
3 | CNS(=O)(=O)NNS(=O)(=O)c1ccc(F)cc1 | > 100 µM (inactive) | – | – | > 100 µM (inactive) | > 100 µM (inactive) | – | > 100 µM (inactive) | – | > 100 µM (inactive)
4 | Nc1nc(N)c(-c2ccccc2)c(C(=O)Nc2nccs2)n1 | > 100 µM (inactive) | – | > 100 µM (inactive) | – | > 100 µM (inactive) | > 100 µM (inactive) | > 100 µM (inactive) | – | > 100 µM (inactive)
5 | O=C(NN1C(=O)CS(=O)(=O)C1c1cccc(F)c1)c1ccncc1 (stereo not drawn) | – | – | < 0.01 µM (active) | 82.6 µM (inactive) | – | > 10 µM (inactive) | > 100 µM (inactive) | – | > 100 µM (inactive)
6 | Cc1ccc(Nc2nc(C)c(C(/C=C/c3ccc4c(c3)OCO4)=N/Nc3ccc([N+](=O)[O-])cc3[N+](=O)[O-])s2)c([N+](=O)[O-])c1 | 59.7 µM (inactive) | – | 7.69 µM (inactive) | 22.1 µM (inactive) | 33.9 µM (inactive) | 50.7 µM (inactive) | 27.6 µM (inactive) | – | 42.5 µM (inactive)
7 | COc1cc(C(C)c2cc3c(cc2OCCNC(=O)COc2cc4c(cc2C(C)c2cc(OC)c(OC)c(OC)c2)OCO4)OCO3)cc(OC)c1OC (stereo not drawn) | 80.2 µM (inactive) | – | – | – | > 100 µM (inactive) | – | > 100 µM (inactive) | – | 86.3 µM (inactive)
8 | CCc1cccc(CC)c1NC(=S)NC(=O)c1ccc(Br)cc1 | 35.2 µM (inactive) | 3.76 µM (inactive) | 49.9 µM (inactive) | 26.3 µM (inactive) | 47.5 µM (inactive) | 64.7 µM (inactive) | 34.9 µM (inactive) | – | > 100 µM (inactive)
9 | COc1cc2c(cc1O)C(C)Cc1cc3c(cc1N(C)CC2)OCO3 (stereo not drawn) | 5.81 µM (inactive) | – | 10.5 µM (inactive) | 7.19 µM (inactive) | 12.4 µM (inactive) | 5.12 µM (inactive) | 4.16 µM (inactive) | – | 18.7 µM (inactive)
10 | CCC(=O)OC[n+]1ccc2c(C)c3[nH]c4ccc(OC)cc4c3c(C)c2c1 | 0.266 µM (active) | – | < 0.01 µM (active) | 1.22 µM (inactive) | 0.117 µM (active) | 0.693 µM (active) | 0.0435 µM (active) | – | 0.0843 µM (active)
11 | COc1ccc(C(=O)OC2C=COC(C)C2OC(=O)c2ccc(OC)cc2)cc1 (stereo not drawn) | 30.7 µM (inactive) | – | 27.2 µM (inactive) | > 45 µM (inactive) | 27.6 µM (inactive) | 22.5 µM (inactive) | 16.4 µM (inactive) | – | 26.4 µM (inactive)
12 | CC(=O)N(C)c1ccc2c(ccc[n+]2[O-])c1[N+](=O)[O-] | > 100 µM (inactive) | – | > 100 µM (inactive) | > 100 µM (inactive) | > 100 µM (inactive) | > 100 µM (inactive) | > 100 µM (inactive) | – | > 100 µM (inactive)
13 | CN(C)CCNC(=O)c1cccc2nc3c(Cl)cccc3nc12 | 2.96 µM (inactive) | – | > 30.7 µM (inactive) | 2.92 µM (inactive) | 5.52 µM (inactive) | – | 4.43 µM (inactive) | – | 6.92 µM (inactive)
14 | O=C(/C=C\c1cccc2ccccc12)c1ccc(Cl)cc1Cl | 19.1 µM (inactive) | – | 22.8 µM (inactive) | – | 31 µM (inactive) | 20.3 µM (inactive) | 22 µM (inactive) | – | 23.8 µM (inactive)
15 | Cn1nnc2c(C(N)=O)ncn2c1=O [TEMOZOLOMIDE] | > 100 µM (inactive) | > 100 µM (inactive) | > 100 µM (inactive) | > 100 µM (inactive) | > 100 µM (inactive) | > 100 µM (inactive) | > 100 µM (inactive) | > 100 µM (inactive) | –
